Details: from C=C/C=C\[C@H](C)[C@H](O)[C@@H](C)[C@@H](CC[C@H](C)C[C@H](C)[C@@H](O[Si](C)(C)C(C)(C)C)[C@@H](C)/C=C\[C@H](C[C@H](O[Si](C)(C)C(C)(C)C)[C@H](C)/C=C/C=C\C(=O)O)O[Si](C)(C)C(C)(C)C)O[Si](C)(C)C(C)(C)C; ester bond; 2,4,6-trichlorobenzoyl chloride / Et3N / DMAP (Yamaguchi); toluene; 1.71 mM; 25.0 °C; 12.0 h; 2 steps

C=C/C=C\[C@H](C)[C@@H]1OC(=O)/C=C\C=C\[C@@H](C)[C@@H](O[Si](C)(C)C(C)(C)C)C[C@H](O[Si](C)(C)C(C)(C)C)/C=C\[C@H](C)[C@H](O[Si](C)(C)C(C)(C)C)[C@@H](C)C[C@@H](C)CC[C@@H](O[Si](C)(C)C(C)(C)C)[C@@H]1C
ring closure, yield of all isomers: 78%

— patent US7321046B2, “Analogs of dictyostatin, intermediates therefor and methods of synthesis thereof” (University of Pittsburgh, priority 2002, dated 2008)
